Results published in ChEMBL document CHEMBL1201862, “PubChem BioAssay data set” (2004).
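Five concentrations, 48 hours, 96-well plates. Here, GI50 denotes the concentration required for 50% inhibition of growth.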 Active and inactive are the calls of the source. No stated cut-off is given here; in the data, active = GI50 up to about 1.1 µM and inactive = higher.

Experiments:
Assay in all cases: NCI-60 cell line screen, 48 h
[1] = tested on: 786-0
[2] = tested on: A498
[3] = tested on: A549
[4] = tested on: ACHN
[5] = tested on: BT-549
[6] = tested on: CAKI-1
[7] = tested on: CCRF-CEM
[8] = tested on: COLO 205
[9] = tested on: DU-145
[10] = tested on: EKVX
[11] = tested on: HCC 2998
[12] = tested on: HCT-116
[13] = tested on: HCT-15
[14] = tested on: HL-60
[15] = tested on: HOP-62
[16] = tested on: HOP-92
[17] = tested on: Hs-578T
[18] = tested on: IGROV-1
[19] = tested on: K562
[20] = tested on: LOX IMVI
[21] = tested on: M14
[22] = tested on: MCF7
[23] = tested on: MDA-MB-231
[24] = tested on: MDA-MB-435
[25] = tested on: MDA-N
[26] = tested on: MOLT-4
[27] = tested on: Malme-3M
[28] = tested on: NCI-H226
[29] = tested on: NCI-H23
[30] = tested on: NCI-H460
[31] = tested on: NCI-H522
[32] = tested on: NCI/ADR-RES
[33] = tested on: OVCAR-3
[34] = tested on: OVCAR-4
[35] = tested on: OVCAR-5
[36] = tested on: OVCAR-8
[37] = tested on: PC-3
[38] = tested on: RPMI-8226
[39] = tested on: RXF 393
[40] = tested on: SF-268
[41] = tested on: SF-295
[42] = tested on: SF-539
[43] = tested on: SK-MEL-28
[44] = tested on: SK-MEL-2
[45] = tested on: SK-MEL-5
[46] = tested on: SK-OV-3
[47] = tested on: SN12C
[48] = tested on: SNB-19
[49] = tested on: SNB-75
[50] = tested on: SR
[51] = tested on: SW-620
[52] = tested on: T47D
[53] = tested on: U-251
[54] = tested on: UACC-257
[55] = tested on: UACC-62
[56] = tested on: UO-31
[57] = tested on: HT-29
[58] = tested on: KM12
[59] = tested on: TK-10

For `CCCC1(NC(=O)C(F)(F)F)CC(OC)OC2COC(c3ccccc3)OC21` (centres undefined), the GI50 [1] was 76.2 µM (inactive), the GI50 [2] was > 100 µM (inactive) and the GI50 [3] was 28.3 µM (inactive). The GI50 [4] was 49.3 µM (inactive), the GI50 [5] was 58.6 µM (inactive) and the GI50 [6] was 6.31 µM (inactive). For the same compound, the GI50 [7] was 66.4 µM (inactive), the GI50 [8] was 21.1 µM (inactive) and the GI50 [9] was 79.3 µM (inactive). The GI50 [10] was 36.3 µM (inactive), the GI50 [11] was 52.2 µM (inactive) and the GI50 [12] was 42.1 µM (inactive). The GI50 [13] was 55.7 µM, the GI50 [14] was 27.1 µM (inactive) and the GI50 [15] was > 100 µM (inactive). The GI50 [16] was 9.23 µM (inactive), the GI50 [17] was > 100 µM (inactive) and the GI50 [18] was > 100 µM (inactive). For the same compound, the GI50 [19] was 35.3 µM (inactive), the GI50 [20] was 64.9 µM (inactive) and the GI50 [21] was 26.8 µM (inactive). The GI50 [22] was 30 µM (inactive), the GI50 [23] was 95.1 µM (inactive) and the GI50 [24] was 18.1 µM (inactive). The GI50 [25] was 59.4 µM (inactive), the GI50 [26] was 26.2 µM (inactive) and the GI50 [27] was 44.7 µM (inactive). The GI50 [28] was > 100 µM (inactive), the GI50 [29] was 34.5 µM (inactive) and the GI50 [30] was 34 µM (inactive). The GI50 [31] was 31.5 µM (inactive), the GI50 [32] was 29.3 µM (inactive) and the GI50 [33] was > 100 µM (inactive). For the same compound, the GI50 [34] was 6.25 µM (inactive), the GI50 [35] was > 100 µM (inactive) and the GI50 [36] was 51.1 µM (inactive). The GI50 [37] was 32 µM (inactive), the GI50 [38] was > 10 µM (inactive) and the GI50 [39] was 94.6 µM (inactive). The GI50 [40] was > 100 µM (inactive), the GI50 [41] was 50.7 µM (inactive) and the GI50 [42] was > 100 µM (inactive). For the same compound, the GI50 [43] was > 100 µM (inactive), the GI50 [44] was 26.8 µM (inactive) and the GI50 [45] was 16.9 µM (inactive). The GI50 [46] was 70 µM (inactive), the GI50 [47] was > 100 µM (inactive) and the GI50 [48] was > 100 µM (inactive). The GI50 [49] was > 100 µM (inactive), the GI50 [50] was 24.8 µM (inactive) and the GI50 [51] was 53 µM (inactive). For the same compound, the GI50 [52] was 59.4 µM (inactive), the GI50 [53] was 46.7 µM (inactive) and the GI50 [54] was 63.1 µM (inactive). The GI50 [55] was 55.7 µM (inactive) and the GI50 [56] was 35 µM (inactive).
For `CC1(C)CCCCCC(C)(CCCCCCCCCCCO)C1=O` (centres undefined), the GI50 [1] was 16.2 µM (inactive), the GI50 [2] was 17.9 µM (inactive) and the GI50 [3] was 15.1 µM (inactive). For the same compound, the GI50 [4] was 12.8 µM (inactive), the GI50 [5] was 18.9 µM (inactive) and the GI50 [6] was 15.1 µM (inactive). For the same compound, the GI50 [7] was 13 µM (inactive), the GI50 [8] was 17.1 µM (inactive) and the GI50 [9] was 17.7 µM (inactive). The GI50 [10] was 17.6 µM (inactive), the GI50 [11] was 24.3 µM (inactive) and the GI50 [12] was 15.3 µM (inactive). The GI50 [13] was 16.1 µM, the GI50 [14] was 14.7 µM (inactive) and the GI50 [15] was 17.7 µM (inactive). For the same compound, the GI50 [16] was 17.3 µM (inactive), the GI50 [57] was 11.9 µM (inactive) and the GI50 [17] was 16.3 µM (inactive). For the same compound, the GI50 [18] was 18.2 µM (inactive), the GI50 [19] was 15.3 µM (inactive) and the GI50 [58] was 18.1 µM (inactive). For the same compound, the GI50 [20] was 15.4 µM (inactive), the GI50 [22] was 16.1 µM (inactive) and the GI50 [23] was 16.3 µM (inactive). The GI50 [24] was 16.6 µM (inactive), the GI50 [25] was 17.9 µM (inactive) and the GI50 [26] was 19.5 µM (inactive). The GI50 [27] was 16 µM (inactive), the GI50 [28] was 17.1 µM (inactive) and the GI50 [29] was 16.6 µM (inactive). The GI50 [30] was 17.1 µM (inactive), the GI50 [31] was 17.3 µM (inactive) and the GI50 [32] was 14 µM (inactive). For the same compound, the GI50 [33] was 16 µM (inactive), the GI50 [34] was 15.5 µM (inactive) and the GI50 [35] was 17.2 µM (inactive). For the same compound, the GI50 [36] was 16.9 µM (inactive), the GI50 [37] was 16.1 µM (inactive) and the GI50 [38] was 20.9 µM (inactive). For the same compound, the GI50 [39] was 16.9 µM (inactive), the GI50 [40] was 16.1 µM (inactive) and the GI50 [41] was 15.7 µM (inactive). For the same compound, the GI50 [42] was 16.7 µM (inactive), the GI50 [43] was 17.9 µM (inactive) and the GI50 [44] was 16.2 µM (inactive). For the same compound, the GI50 [45] was 16.7 µM (inactive), the GI50 [46] was 17.6 µM (inactive) and the GI50 [47] was 16.1 µM (inactive). For the same compound, the GI50 [48] was 17.2 µM (inactive), the GI50 [49] was 16.3 µM (inactive) and the GI50 [50] was 1.41 µM (inactive). The GI50 [51] was 18.4 µM (inactive), the GI50 [52] was 14.6 µM (inactive) and the GI50 [59] was 12.1 µM (inactive). For the same compound, the GI50 [53] was 17 µM (inactive), the GI50 [54] was 14 µM (inactive) and the GI50 [55] was 15.5 µM (inactive). For the same compound, the GI50 [56] was 17 µM (inactive).
